Values joined by “and” are separate entries in the source; they are usually repeats but may differ in a detail not shown here. Equal values may be shown once.
Experiments:
[1] = system: mosquitoes; experiment: Toxicity of rFOH by air exposure (container protected with a net to prevent ingestion); type: in vivo
Experimental: The CPDA contained 3.33 g sodium citrate, 0.376 g citric acid, 4.02 g glucose, 0.28 g sodium monobasic phosphate, and 0.346 g adenine in 1 liter of solution. (2R)-3-fluoropropane-1,2-diol (rFOH) was used as the active agent at a concentration of 1%.
100 mosquitoes were placed in a 6-liter cage with a container containing 1% rFOH in 10% sucrose with CPDA for 48 hours at room temperature (25-28° C.). The container was protected with a net to prevent ingestion of rFOH by the mosquitoes. […] The same result was obtained even when 10% of rFOH was used.

[2] = system: Escherishia coli DH5α; experiment: MIC test, broth microdilution (CLSI M07-A9); type: cell-based; details: Tryptic soy broth, 37° C. for 24 hrs
Experimental: (§1) The effects of pesticides disclosed herein on various bacteria were tested by determining the minimal inhibitory concentration (MIC) of the pesticides. MIC of an antimicrobial agent is the lowest concentration of the antimicrobial agent that inhibits a given bacterial isolate from multiplying and producing visible growth in the test system. The MIC of rFOH and BrOH was determined in the laboratory by incubating a known quantity of bacteria with a series of dilutions of the active agents and comparing their effects with those of known antimicrobial agents. Table 6 lists the representative bacterial strains and the conditions in MIC tests. Antimicrobial tests of the active agents were conducted according to “Methods for Dilution Antimicrobial Susceptibility Tests for Bacteria That Grow Aerobically” by Clinical and Laboratory Standards Institute (CLSI) (CLSI document M07-A9, 2012). In the study, methicillin/oxacillin resistant Staphylococcus aureus (MRSA) strain (ATCC 43300) was routinely under screening with 4 ug/ml oxacillin. Escherishia coli DH5α was a nonpathogenic laboratory strain. […] When the DH5α/plasmid (DH5P) colony was used, the colony was maintained in the presence of 100 ug/ml ampicillin.
(§2) MIC tests were conducted in 96 well microtiter plates with a total volume of 150 ul broth in each well. The directly colony suspension method (CLSI document M07-A9, 2012) was applied to obtain MIC for antimicrobial tests of the active agents. After colonies were freshly incubated overnight, colonies were suspended in sterile water to adjust the inoculum to a turbidity equivalent to a 0.5 McFarland standard (corresponding to approximately 1.5×10^8 CFU/ml). Within 10 minutes, the inoculum was adjusted by dilution in broth to reach a final concentration of 5×10^5 CFU/ml. A series of various concentrations of the active agents were applied to determine the MIC. In the same microtiter plate, an internal standard formulated by a concentration series of standard antibiotic agent was incubated in parallels to allow for back-to-back comparison.

[3] = system: Methicillin/oxacillin resistant Staphylococcus aureus (MRSA) strain (ATCC 43300); experiment: MIC test, broth microdilution (CLSI M07-A9); type: cell-based; details: Mueller Hinton broth with 2% NaCl and 50 ug/ml CaCl2, 35° C. for 24 hrs
Experimental: as §1, §2

[4] = system: Escherishia coli DH5α transformed with a pcDNA3 plasmid (DH5P); experiment: MIC test, broth microdilution (CLSI M07-A9); type: cell-based; details: Tryptic soy broth, 37° C. for 24 hrs
Experimental: as §1, §2

[5] = system: male mosquitoes; experiment: Efficacy by ingestion: feeder test, death rate of male mosquitoes; type: in vivo; details: 0.1% rFOH, 10% sugar in CPDA, 24 hrs, 24 hrs fasting, sugar feeder provided for free choice
Experimental: (§3) (2R)-3-fluoropropane-1,2-diol (rFOH) was used as the active agent at various concentrations. A sugar feeder containing 10% sucrose, which is a regular mosquito feeder in a laboratory setting, was used as a regular food source in free choice studies. A free choice study allows the pests to select which feeder to feed on when given two or more choices.
Similar experiments as disclosed above were performed on female mosquitoes and male mosquitoes. The rFOH composition contained 10% sugar in CPDA solution unless specified otherwise.

[6] = system: female mosquitoes; experiment: Efficacy by ingestion: feeder test in 6-liter cage, death rate of female mosquitoes; type: in vivo; details: for death after 24 hours of feeding: fasted 24 hours
Description: Female mosquitoes were used in the experiment because only female mosquitoes bite humans and animals and transmit infectious diseases.
as §3
In a two-choice test, a 6-liter cage was supplied with two feeders, one contained 5% rFOH and 10% sucrose in CPDA and the other one contained 10% sucrose without any rFOH or CPDA. 100 female mosquitoes were placed in the cage having the two feeders such that the mosquitoes chose freely which feeder to feed on. After 24 hours of feeding in the cage, over 80% of mosquitoes were dead. […] When the concentration of rFOH was reduced to 1% or 0.15%, its effectiveness remained the same. Over 80% of mosquitoes were dead due to 24 hours of feeding with rFOH.
Subsequent to 24 hours of feeding, rFOH feeder was removed from the cage and a regular sugar feeder (10% sucrose) was provided. In the next day, 5-20% of residual death was observed, indicating a delayed death after rFOH ingestion.
In a further study, mosquitoes were fasted for 24 hours before feeding to ensure that all mosquitoes have the capacity for food intake. […] Thus, fasting is not a cause of mosquito death during a series of experiments.
The experiments determined that 0.1% rFOH was sufficient to achieve 50% death (LD50) under various conditions. In one study, 100 mosquitoes were caged in a 6-liter space and fasted for 24 hours. Subsequently, the mosquitoes were fed on two feeders giving their free choices for 0.1% rFOH containing 10% sucrose in CPDA or 10% sucrose without rFOH for 24 hours, resulting in 43% death. In a parallel study in which the cage was supplied with a single feeder, the 0.1% rFOH feeder containing 10% sucrose in CPDA, which caused 44% of death after 24 hours of feeding.
Similar experiments as disclosed above were performed with various rFOH concentrations under various conditions. The rFOH composition contained 10% sugar in CPDA solution unless specified otherwise.
Similar experiments as disclosed above were performed on female mosquitoes to determine LD50. The rFOH composition contained 10% sugar in CPDA solution unless specified otherwise.
Similar experiments as disclosed above were performed on female mosquitoes using different active agents at various concentrations. The active agent composition contained 10% sugar in CPDA solution unless specified otherwise.

OC[C@@H](O)CF [rFOH, (2R)-3-fluoropropane-1,2-diol]
death of mosquito by air exposure ([1]; 1% rFOH in 10% sucrose with CPDA, container protected with net, 48 hours, room temperature (25-28° C.)): No death | death of pests when exposed but not ingested ([1]; concentration 100-fold as high as the LD50, not ingested): no death | MIC [2]: 0.4% and 0.43% | MIC [3]: 0.4% | MIC [4]: 0.4% | Death Rate [5]: 95% | Death Rate ([6]; 0.1% rFOH, 5% sugar, CPDA, 5% maltose, 24 hrs, 24 hrs fasting, sugar feeder provided for free choice): 54% | Death Rate ([6]; 0.1% rFOH, 5% sugar, CPDA, 25% Maple Syrup, 24 hrs, 24 hrs fasting, sugar feeder provided for free choice): 26-47% | Death Rate ([6]; 0.1% rFOH, 5% sugar, CPDA, 50% corn syrup, 24 hrs, 24 hrs fasting, sugar feeder provided for free choice): 22-30% | death after 24 hours of feeding ([6]; 0.1% rFOH, 10% sucrose in CPDA, free choice with 10% sucrose feeder): 43% | death after 24 hours of feeding ([6]; 0.1% rFOH, 10% sucrose in CPDA, single feeder): 44% | Death Rate ([6]; 0.1% rFOH, 10% sugar in CPDA, 24 hrs, 24 hrs fasting, sugar feeder not provided): 65% | Death Rate ([6]; 0.1% rFOH, 10% sugar in CPDA, 24 hrs, 24 hrs fasting, sugar plus CPDA feeder provided for free choice): 59-80% | Death Rate ([6]; 0.1% rFOH, 10% sugar in CPDA, 24 hrs, not fasted, sugar feeder provided for free choice): 64% | Death Rate ([6]; 0.1% rFOH, 10% sugar, no CPDA, 24 hrs, 24 hrs fasting, sugar feeder provided for free choice): 44-50% | total death rate incl. residual death ([6]; 0.1% rFOH, rFOH feeder replaced by sugar feeder, residual death within next 24 hours included): 46-64% | death of female mosquitoes after 24 hours of feeding ([6]; 0.15% rFOH): more than 90% | Death Rate ([6]; 0.15% rFOH, 10% sucrose in CPDA, 24 hours feeding, two-choice with 10% sucrose feeder): over 80% | Death Rate ([6]; 0.15% rFOH, 10% sugar in CPDA, 24 hrs, 24 hrs fasting, sugar feeder not provided): 95-98% | Death Rate ([6]; 0.15% rFOH, 10% sugar in CPDA, 24 hrs, 24 hrs fasting, sugar feeder provided for free choice): 55-80% | time to death after ingestion ([6]; 0.15% rFOH, female mosquitoes): 2 to 5 h | Death Rate ([6]; 1% rFOH, 10% sucrose in CPDA, 24 hours feeding, two-choice with 10% sucrose feeder): over 80% | Death Rate ([6]; 5% rFOH, 10% sugar in CPDA, 24 hrs, not fasted, sugar feeder not provided): 94% | residual death in the next day ([6]; after 24 hours feeding rFOH feeder removed, regular sugar feeder (10% sucrose) provided): 5-20% | rFOH per mosquito corresponding to 0.15% rFOH ([6]; assuming a female mosquito ingests as much as 0.6 μl of the composition, >90% death): 0.001 mg

Reference: patent publication US11553713B2, “Polyalcohol, carbohydrate, nucleobase and nucleotide compositions and uses thereof” (Chunbo Zhang, priority 2015, dated 2023)
